A short description of one series: in vitro. As to conditions: human.
For another series, the system named is MERS-CoV-S pseudovirus. It is filed as cell-based.
The subject of a further series is VSV-G pseudovirus. Put plainly: microbe, parasite or virus in culture. Format: cell-based, vesicular stomatitis virus. As to conditions: for activity at 10 µM: Pseudovirus, 293T/ACE2, read-out: % Infectivity of VSV-G pv.
The test system of the next series is SARS-CoV-1-S pseudovirus. It is filed as cell-based.
Series [1] concerns SARS-CoV-2 spike protein pseudovirus. Put plainly: microbe, parasite or virus in culture. It is filed as cell-based. As to conditions: for activity at 10 µM: 293T/ACE2, 48 h, read-out: % Infectivity of SARS-2-Spike pv.
For series [2] the test system is unchanged. It is filed as cell-based.
The test system is the same in series [3]. It is filed as cell-based. The source holds these as a separate data set.
Series [4] shares this test system. As to conditions: Caco-2.
The conditions of series [5]: predictions for the uncharged form; ref https://go.drugbank.com; cited from earlier work.
For series [6] the following is noted: values for the salts; ref chemical supplier datasheets; cited from earlier work.
The subject of series [7] is SARS-CoV-2 spike protein pseudovirus. Format: cell-based. The source holds these as a separate data set.
Series [8] has the same test system. Format: cell-based. The source holds these as a separate data set.
For series [9] the following is noted: within current drug treatment regimes; ref PubChem database; read-out: peak serum concentration (Cmax); cited from earlier work.
The subject of series [10] is SARS-CoV-2 spike protein pseudovirus. Format: cell-based. This is another data set of the same source.
Setting [11] is: 293T/ACE2, read-out: IC50 of SARS-CoV-2-S pseudovirus infectivity.

As usually defined, the viability is a read-out of living cells in per cent, often relative to untreated cells. As usually defined, the IC50 is the concentration that gives 50% inhibition.

Entries after “also recorded” stand apart in the source; their conditions may differ. Where a name gives a salt, the structure may show the parent alone. Read-outs that look alike come from different tables or passages of the source.

As to `CCOC(=O)C1=C(COCCN)NC(C)=C(C(=O)OC)C1c1ccccc1Cl` (centres unmarked) [amlodipine], the viability in “in vitro” (% Viability of SARS-2-Spike pv) was 115%. Further, the “inhibition of MERS-CoV-S pseudovirus infection” value with MERS-CoV-S pseudovirus is reported as “non-significant inhibition”. The “toxicity in Calu3 cells (word printed in Figure 7)” value (shortened to “toxicity in Calu3 cells”) with Calu3 cells was “toxic”. Moreover, in the series with VSV-G pseudovirus, the “% Infectivity of VSV-G pv” value was 78%. Moreover, the “inhibition of SARS-CoV-1-S pseudovirus infection” value in the series on SARS-CoV-1-S pseudovirus is “significant inhibition”. The activity at 10 µM in series [1] was determined as 12%. The IC50 in series [1] (setting [11]) is 5.6 µM.
For `CN(C)C(=O)COC(=O)Cc1ccc(OC(=O)c2ccc(NC(=N)N)cc2)cc1` [camostat mesylate], the “inhibition of SARS-CoV-2 pseudovirus infection of A549-ACE2 cells” value (shortened to “inhibition … of A549-ACE2 cells”) in series [2] is reported as “failed to inhibit”. The “inhibition of MERS-CoV-S pseudovirus infection” value with MERS-CoV-S pseudovirus is “did not inhibit”. Also, the “% infectivity of SARS-CoV-2 pseudovirus in Calu3 cells” value (from here on “% infectivity … in Calu3 cells”) in [3] is on record as “inhibited”. In addition, the “% Infectivity of VSV-G pv” value with VSV-G pseudovirus was “did not inhibit”. In addition, the “inhibition of SARS-CoV-1-S pseudovirus infection” value in the series with SARS-CoV-1-S pseudovirus is recorded as “did not inhibit”. Further, in series [4], the “inhibition of SARS-CoV-2 pseudovirus infection of Caco2 cells” value is given as “inhibited”. Besides, the activity at 10 µM in series [1] turned out to be 120%.
Regarding `CCN(CC)CCCC(C)Nc1ccnc2cc(Cl)ccc12` (centres unmarked) [chloroquine diphosphate], the viability in “in vitro” was 123%. For the same molecule, the “inhibition … of A549-ACE2 cells” value in [2] is given as “failed to inhibit”. The “inhibition of MERS-CoV-S pseudovirus infection” value in the series on MERS-CoV-S pseudovirus is recorded as “inhibited”. Further, the activity at 10 µM with VSV-G pseudovirus was found to be 83%; in [1], 1%. The “inhibition of SARS-CoV-1-S pseudovirus infection” value in the series with SARS-CoV-1-S pseudovirus is given as “inhibited”. Besides, the IC50 in series [1] (setting [11]) amounted to 0.32 µM.
As for `CN(C)CCCN1c2ccccc2Sc2ccc(Cl)cc21` [chlorpromazine HCl], the water solubility a in series [5] is 12 µM. Further, the viability in the series “in vitro” (% Viability of SARS-2-Spike pv) is 65%. The water solubility b in [6] was 141 mM. In addition, the activity at 10 µM in the series with VSV-G pseudovirus is 58%; in [1] it was 6%. Further, the IC50 in [1] (setting [11]) was found to be 3.79 µM. Also, the “% infectivity, drug added at 1 hpi (post-entry)” value (“% infectivity, drug added” below) in series [7] is 35%.
With `CN(C)CC/C=C1/c2ccccc2Sc2ccc(Cl)cc21` [chlorprothixene], the “% infectivity in attachment assay” value in series [8] was “did not inhibit virus attachment”. In addition, in “in vitro” (% Viability of SARS-2-Spike pv), the viability amounted to 97%. For the same molecule, the “% infectivity … in Calu3 cells” value in series [3] was found to be 44%. The activity at 10 µM came out at 48% in the series on VSV-G pseudovirus and 5% in series [1]. Also, in series [9], the Cmax is 1400 nM. Also, in series [1] (setting [11]), the IC50 came out at 1.94 µM. For the same molecule, the “% infectivity, drug added” value in [7] is 45%.
As for `CCN(CCO)CCCC(C)Nc1ccnc2cc(Cl)ccc12` (centres unmarked) [hydroxychloroquine sulfate], in series [8], the “% infectivity in attachment assay” value is “did not inhibit attachment”. Besides, the water solubility a in [5] is 60 µM. Further, the viability in “in vitro” (% Viability of SARS-2-Spike pv) was 90%. The “inhibition … of A549-ACE2 cells” value in series [2] is reported as “failed to inhibit”. Besides, in the series with MERS-CoV-S pseudovirus, the “inhibition of MERS-CoV-S pseudovirus infection” value was “inhibited”. The water solubility b in [6] is on record as 200 mM. The activity at 10 µM in the series with VSV-G pseudovirus came out at 103%; in [1], 2%. For the same molecule, the “inhibition of SARS-CoV-1-S pseudovirus infection” value in the series on SARS-CoV-1-S pseudovirus is recorded as “inhibited”. The half-inhibitory concentration (IC50) in series [1] (setting [11]) turned out to be 0.66 µM; in series [1] (read-out: IC50 of SARS-CoV-2-S pseudovirus infectivity) it was 0.7 µM.
On to `CNCCCC12CCC(c3ccccc31)c1ccccc12` [maprotiline HCl], for which, in series [5], the water solubility a is 150 µM. In “in vitro” (% Viability of SARS-2-Spike pv), the viability came out at 99%. For the same molecule, in series [6], the water solubility b is 159 mM. The activity at 10 µM with VSV-G pseudovirus was determined as 89%; in series [1], 9%.
For `CN1CCC(=C2c3ccccc3CCc3sccc32)CC1` [pizotifen malate], the water solubility a in [5] is 16 µM. Also, the viability in the series “in vitro” (% Viability of SARS-2-Spike pv) stood at 106%. In addition, in series [3], the “% infectivity … in Calu3 cells” value is 13%. Also, the activity at 10 µM with VSV-G pseudovirus was 77%; in series [1], 7%. The IC50 in series [1] (setting [11]) is 3.46 µM.
For `CN[C@H]1CC[C@@H](c2ccc(Cl)c(Cl)c2)c2ccccc21` [sertraline HCl], the viability in “in vitro” (% Viability of SARS-2-Spike pv) came out at 95%. In addition, the “toxicity in Calu3 cells” value with Calu3 cells is “toxic”. Also, the activity at 10 µM in the series with VSV-G pseudovirus was found to be 71%; in [1], 8%.
For `CC(C)OC(=O)OCOP(=O)(CO[C@H](C)Cn1cnc2c(N)ncnc21)OCOC(=O)OC(C)C.O=C(O)/C=C/C(=O)O` [tenofovir, tenofovir disoproxil fumarate], the “inhibition of SARS-CoV-2 pseudovirus infection of Vero cells” value in [10] is on record as “complete inhibition”. Moreover, in series [2], the “inhibition … of A549-ACE2 cells” value is recorded as “complete inhibition”. Besides, the “inhibition of MERS-CoV-S pseudovirus infection” value with MERS-CoV-S pseudovirus is on record as “completely inhibited”. For the same molecule, the “% infectivity … in Calu3 cells” value in series [3] was “complete inhibition”. In addition, in the series with VSV-G pseudovirus, the “% Infectivity of VSV-G pv” value is given as “potently inhibited; also recorded: completely inhibited”. The “inhibition of SARS-CoV-1-S pseudovirus infection” value in the series on SARS-CoV-1-S pseudovirus is reported as “completely inhibited”. Besides, in series [4], the “inhibition of SARS-CoV-2 pseudovirus infection of Caco2 cells” value is “complete inhibition”. For the same molecule, in series [1], the “% Infectivity of SARS-2-Spike pv” value was “completely inhibited”. The “% infectivity, drug added” value in series [7] is listed as “complete inhibition”.
As to `CSc1ccc2c(c1)N(CCC1CCCCN1C)c1ccccc1S2` (centres unmarked) [thioridazine HCl], the “% infectivity in attachment assay” value in [8] came to 28%. Besides, the water solubility a in series [5] is 2.1 µM. Besides, the viability in “in vitro” (% Viability of SARS-2-Spike pv) came out at 71%. The “inhibition of MERS-CoV-S pseudovirus infection” value in the series on MERS-CoV-S pseudovirus is given as “non-significant inhibition”. In addition, the “% infectivity … in Calu3 cells” value in series [3] was found to be 22%. For the same molecule, in series [6], the water solubility b is recorded as 122 mM. Besides, the activity at 10 µM in the series on VSV-G pseudovirus came to 69%; in series [1], 6%. The “inhibition of SARS-CoV-1-S pseudovirus infection” value with SARS-CoV-1-S pseudovirus is reported as “significant inhibition”.
On to `CC(CN(C)C)CN1c2ccccc2CCc2ccccc21` (centres unmarked) [trimipramine maleate], for which, in [5], the water solubility a was 88 µM. The viability in “in vitro” (% Viability of SARS-2-Spike pv) was 92%. For the same molecule, in series [3], the “% infectivity … in Calu3 cells” value was 8%. In addition, the water solubility b in series [6] is 5 mM. In addition, the figures for the activity at 10 µM (in the series on VSV-G pseudovirus; in [1]) were 95% and 14%, respectively. Also, the IC50 in [1] (setting [11]) worked out at 5.35 µM.
As for `COc1cc2c(Nc3ccc(Br)cc3F)ncnc2cc1OCC1CCN(C)CC1` [vandetanib], the viability in “in vitro” came out at 89%. The “toxicity in Calu3 cells” value in the series with Calu3 cells is “toxic”. The activity at 10 µM with VSV-G pseudovirus came to 125%; in series [1], 1%. The IC50 in [1] (setting [11]) came out at 6.45 µM.

The values above are taken from article PMC8619434 (Viruses, 2021).
